Measured values: patent publication US7157449B2, “Medicament for the treatment of diseases caused by parasitic protozoa” (priority 2000, dated 2007)
“Also recorded” adds a separate entry of the source.

Assays:
T. brucei [1] = test: Effect of drugs on trypanosome proliferation; type: cell-based; settings: for effect on trypanosome proliferation: DON 1, 5 μM, acivicin 1, 5, 25 μM, CPEC 250 μM, azaserine data not shown; for rescue of trypanosomes from the proliferation block asserted by DON: cytidine up to 5 mM or cytosine 1 mM
Description: In A), the trypanosomes were treated with no drug (squares), 1 μM DON (triangles) or 5 μM DON (diamonds). In (B), the trypanosomes were treated with no drug (filled squares), 1 μM acivicin (triangles), 5 μM acivicin (diamonds) or 25 μM acivicin (open squares). The number of trypanosomes was counted at various time-points after the drug exposure had started. It appears that DON and acivicin were both very active.
The trypanosomes were treated with DON for 1 h and then harvested and resuspended in drug-free medium. The number of trypanosomes was counted at various time-points after the release had started (triangles). A control experiment was performed where the trypanosomes were not exposed to DON but otherwise were treated exactly the same way as the drug-treated trypanosomes (squares). Each point is an average of two experiments with the standard deviation indicated by error bars.
(§1) Procyclic insect forms of T. brucei brucei AnTat 1.1 were cultured in SDM-79 medium (Brun, R. and Schoenenberger, M. (1979) Acta Trop. 36, 289–292) supplemented with 10% heat-inactivated fetal bovine serum at 27° C. Culture-adapted bloodstream forms of the T. brucei brucei cell line TC221 (Hirumi, H., Hirumi, K., Doyle, J. J. and Cross, G. A. M. (1980) Parasitology 80, 371–382) were propagated in Hirumi's modified Iscove's medium-9 (Hirumi, H. and Hirumi, K. (1989) J. Parasitology 75, 985–989) supplemented with 5% fetal bovine serum at 37° C. in a humidified atmosphere containing 7% CO2. The cultured parasites were harvested in the late logarithmic growth phase.
(§2) 6-diazo-5-oxo-L-norleucine (DON), acivicin and azaserine were bought from Sigma. They were dissolved in water and stored as 5 mM solutions at −20° C. Cyclopentenyl cytosine was a kind gift from Grant McClarty at the Dept. of Medical Microbiology, University of Manitoba, 730 William Ave, Winnipeg, Manitoba R3E OW3, Canada. It was stored as a 50 mM solution in dimethyl sulfoxide (DMSO) at 4° C. The final concentration of DMSO in the growth media of the trypanosomes never became more than 0.5% and that had no effect on the NTP pools or the proliferation of the parasites.
DON is not stable in the bloodstream and has a half-life of only a few hours in humans (Kovach, J. S., Eagan, R. T., Pawis, G., Rubin, J., Creagan, E. T. and Moertel. C. G. (1981) Cancer Treat. Rep. 65, 1031–1036; Rahman, A., Luc, V., Smith, F. P., Vrown, J., Schein, P. S. and Woolley, P. V. (1981); and Sullivan, M. P., Nelson, J. A., Feldman, S. and Nguyen, B. V. (1988) Cancer Chemother. Pharmac. 21, 78–84). Therefore, it was tested for how long the effect of a short pulse of DON lasts on trypanosome proliferation. In FIG. 5, the trypanosomes have been treated with 5 μM DON for 1 h. After the incubation, the trypanosomes were collected by centrifugation, the pellet was washed with media not containing DON and resuspended in the same media and the trypanosomes were put back into the incubator. The amount of trypanosomes was continuously recorded during the incubation. Control trypanosomes were treated the same way except that the one-hour incubation was without DON.

T. brucei [2] = test: NTP (CTP) pools in trypanosomes after treatment with CTP synthetase inhibitors; type: cell-based; settings: for size of the CTP pool after addition of cytidine or cytosine: up to 15 mM cytidine or 1 mM cytosine, harvested one hour later; for effect on the CTP pool: 1 h incubation, 25 and 100 μM DON, 100 μM acivicin, 25 μM CPEC
Description: Samples without drug (control), with 25 and 100 μM DON (DON25 and DON100, respectively), with 100 μM acivicin (Aci100) and with 25 μM CPEC (CPEC25) are shown. The unit of the ordinata is the same as in FIG. 1. The control is an average of two experiments while the others are single measurements.
as §1
1–3×10^8 trypanosomes were collected and subsequently disintegrated by 500 μl ice-cold 0,6 M trichloroacetic acid supplemented with 15 mM MgCl2. The trichloroacetic acid was removed by two extractions with 720 μl 1,1,2-trichlorotrifluoroethan (78%)/trioctylamine (22%) and the aqueous phase was saved. ⅕ of the sample was evaporated to dryness in a Speedvac (Savant), loaded onto a 4.6×125 mm Partisphere SAX-column and run by HPLC in 0,5 M ammonium phosphate pH 3,4 containing 2,5% acetonitrile at 1.5 ml/min. The procedure is further explained in previous work by the present inventors, see Hofer, A., Ekanem, J. T. and Thelander, L. (1998) J. Biol. Chem. 273, 34098–34104. A connection of the HPLC to a Flow Scintillation Analyzer (Radiomatic 150 TR, Packard) made it possible to check the radioactivity in the chromatographic peaks. For radioactivity measurements, the whole sample was usually loaded onto the column. The nucleotides were quantified by measuring the peak heights and comparing them to a standard curve.
as §2
The absolute dependence on de novo synthesis for CTP production might be exploited for chemotherapy purposes since the host can be rescued by cytidine. There are two major classes of compounds that inhibit CTP synthetase, nucleoside analogues and glutamine analogues. One nucleoside analogue, cyclopentenyl cytosine (CPEC), and two glutamine analogues, 6-diazo-5-oxo-L-norleucin (DON) and acivicin, were tested and it was observed how the CTP pool changed during the one-hour incubation period (FIG. 3). […] Next, the effect of the drugs on trypanosome growth was investigated. […] As expected. CPEC (250 μM) had no effect in this experiment either (data not shown).

mouse BALB/c fibroblasts = test: Proliferation of BALB/c fibroblasts with DON with or without hypoxanthine; type: cell-based
Description: The fibroblasts were seeded at a density so low that they could not get confluent within three days. […] At this point the amount of cells was indirectly counted by a method described in the section “Material and methods” below.
Mouse Balb/c fibroblasts were cultivated as monolayers in Dulbecco's Modified Eagles Medium (Sigma) supplemented with L-glutamine (0.584 g/l) and 10% heat-inactivated horse serum at 37° C. in a humidified atmosphere containing 7% CO2. The amount of fibroblasts on each plate was determined by a method were the cell-containing plates were washed with PBS pH 7.5, the cells disintegrated by a 10 min. incubation with 0.2 M NaOH at 50° C. and then the OD260-310 was measured (Suttle, D. P. and Stark, G. R. (1979) J. Biol. Chem. 254, 4602–4607). The cells were collected before confluence.
The effect of DON on trypanosomes and mammalian cells was compared as follows. […] Thus, it needed to be investigated whether or not the anti-proliferation effect on mammalian cells could be abolished, while still keeping the trypanocidal activity. In mammalian cells, DON is a powerful inhibitor of de novo purine biosynthesis. In FIG. 6, two experiments are included wherein the block on de novo purine biosynthesis have been by-passed by 10 and 160 μM hypoxanthine, respectively. Hypoxanthine is a naturally occurring purine base in the bloodstream of mammals.

[3] = human bloodstream; cited from earlier work
Plasmodium falciparum = test: IC50 against parasite (Swiss Tropical Institute standard method); type: cell-based
From the text: (§3) In order to determine in what range DON is effective against Plasmodium falciparum, the cause of malaria, Swiss Tropical Institute (Socinstrasse 57, P.O. Box, CH, 4002 Basel, Switzerland) performed the present experiment according to their standard methods available as a commercial service provided under secrecy (for an exact disclosure of the method, reference is made to Swiss Tropical Institute). Further, the present experiment enables a comparison between the effect of DON on both Trypanosoma brucei rhodiense and Plasmodium falciparum.

[4] = system: Trypanosoma brucei rhodiense; test: as above; type: cell-based
From the text: as §3

[5] = in vivo; cited from earlier work

SMILES: [N-]=[N+]=CC(=O)OC[C@H](N)C(=O)O [Azaserine, azaserine]
- effect on trypanosome proliferation (T. brucei [1]): had no effect

SMILES: Nc1ccn([C@@H]2O[C@H](CO)[C@@H](O)[C@H]2O)c(=O)n1 [Cytidine, cytidine]
- size of the CTP pool after addition of cytidine or cytosine (T. brucei [2]): no change
- rescue of trypanosomes from the proliferation block asserted by DON (T. brucei [1]): could not rescue
- effect on the DON concentration needed for a proliferation block (mouse BALB/c fibroblasts; cytidine added instead of hypoxanthine): had no such effect

SMILES: [N-]=[N+]=CC(=O)CC[C@H](N)C(=O)O [DON, 6-diazo-5-oxo-L-norleucine]
- effect on the CTP pool (T. brucei [2]): selectively lowered the CTP level; also recorded: lowered the CTP pool
- effect on the UTP, ATP or GTP (purine NTP) levels (T. brucei [2]; DON-treated T. brucei): without affecting the UTP, ATP or GTP levels; also recorded: did not alter the purine NTP pools
- half-life [3]: a few hours
- effect on trypanosome proliferation (T. brucei [1]): very active
- concentration that completely blocked trypanosome proliferation (T. brucei [1]; cultured trypanosomes, 160 μM hypoxanthine in medium): 1 µM
- IC50 (Plasmodium falciparum; KI isolate): 520 nM
- IC50 (Plasmodium falciparum; NF54 isolate): 360 nM
- IC50 [4]: 430 nM
- DON concentration needed to inhibit proliferation relative to without hypoxanthine (mouse BALB/c fibroblasts; in the presence of 160 μM hypoxanthine): around 20 times
- antiproliferative effect of DON (mouse BALB/c fibroblasts; with 10 μM hypoxanthine (consumed during the experiment)): still high
- DON concentration needed for a proliferation block (mouse BALB/c fibroblasts; with addition of hypoxanthine): more than 20 μM
- DON concentration for maximal inhibition / total block of proliferation (mouse BALB/c fibroblasts; without purines (hypoxanthine) in the culture medium, 72 h): 1 to 2 µM

SMILES: O=c1[nH]cnc2nc[nH]c12 [Hypoxanthine, hypoxanthine]
- crossing of the blood-brain barrier [5]: known to cross the blood-brain barrier

SMILES: N[C@H](C(=O)O)[C@@H]1CC(Cl)=NO1 [acivicin]
- GTP pool reduced by (T. brucei [2]; 1 h incubation with acivicin, not shown in the figure): 50%
- effect on the CTP pool (T. brucei [2]): lowered the CTP pool
- effect on trypanosome proliferation (T. brucei [1]): very active

SMILES: Nc1cc[nH]c(=O)n1 [cytosine]
- size of the CTP pool after addition of cytidine or cytosine (T. brucei [2]): no change
- rescue of trypanosomes from the proliferation block asserted by DON (T. brucei [1]): could not rescue
